Where two headings read alike, the source gives them in different places.
How the values were obtained:
[1] = system: nontumorigenic neonatal foreskin fibroblast (NFF) cell line
[2] = system: Trichomonas vaginalis G3 trophozoites
[3] = NFF_NS1 screen at 5 µg/mL, NFF cells
[4] = parasite screen at 1 µg/mL, replicate 1
[5] = parasite screen at 1 µg/mL, replicate 2
[6] = NFF_NS1 screen 5 µg/mL, single concentration
[7] = HTS single concentration, parasite screen 1 µg/mL, replicate 1
[8] = HTS single concentration, parasite screen 1 µg/mL, replicate 2
[9] = NFF fibroblasts, single concentration 5 µg/mL
[10] = HTS replicate 1, parasite screen 1 µg/mL
[11] = HTS replicate 2, parasite screen 1 µg/mL
[12] = replicate 1, parasite screen at 1 µg/mL
[13] = replicate 2, parasite screen at 1 µg/mL

CO[C@H]1C[C@@H]2CC[C@@H](C)[C@@](O)(O2)C(=O)C(=O)N2CCCC[C@H]2C(=O)O[C@H]([C@H](C)C[C@@H]2CC[C@@H](O)[C@H](OC)C2)CC(=O)[C@H](C)/C=C(\C)[C@@H](O)[C@@H](OC)C(=O)[C@H](C)C[C@H](C)/C=C/C=C/C=C/1C [BIA-R1183]
NFF_Activity [1, 3]: I (otherwise these were reported as inactive (I))
T.vaginalis_%inb_Rep1 [2, 4]: 10.28%
T.vaginalis_%inb_Rep2 [2, 5]: 12.55%

CC1=C[C@H]2O[C@@H]3[C@H](O)[C@@H](O)[C@](C)([C@@]2(CO)C[C@@H]1O)[C@]31CO1 [BIA-T1932]
NFF_Activity [1, 3]: I (otherwise these were reported as inactive (I))
T.vaginalis_%inb_Rep1 [2, 4]: 10.49%
T.vaginalis_%inb_Rep2 [2, 5]: 13.71%

O=C(O)c1cccc2nc3ccccc3nc12 [Tubermycin B]
NFF_Activity ([1]; NFF fibroblast screen at 5 µg/mL, A = active, I = inactive): I (otherwise these were reported as inactive (I))
T.vaginalis_%inb_Rep1 ([2]; HTS, parasite screen at 1 µg/mL, replicate 1): 8.13%
T.vaginalis_%inb_Rep2 ([2]; HTS, parasite screen at 1 µg/mL, replicate 2): 16.27%

COc1ccc(C[C@H]2NC[C@H](O)[C@H]2OC(C)=O)cc1 [BIA-A1215]
NFF_Activity [1, 6]: I (otherwise these were reported as inactive (I))
T.vaginalis_%inb_Rep1 [2, 7]: 63.76%
T.vaginalis_%inb_Rep2 [2, 8]: 97.54%

Nargenicin
NFF_Activity [1, 9]: I (otherwise these were reported as inactive (I))
T.vaginalis_%inb_Rep1 [2, 10]: 10.70%
T.vaginalis_%inb_Rep2 [2, 11]: 13.02%

CC[C@H](C)[C@H]1O[C@]2(CC[C@@H]1C)C[C@@H]1C[C@@H](C/C=C(\C)[C@@H](O)[C@@H](C)/C=C/C=C3\CO[C@@H]4[C@H](O)C(C)=C[C@@H](C(=O)O1)[C@]34O)O2 [BIA-I1151]
NFF_Activity ([1]; NFF cells, screen at 5 µg/mL): I (otherwise these were reported as inactive (I))
T.vaginalis_%inb_Rep1 [2, 12]: 12.98%
T.vaginalis_%inb_Rep2 [2, 13]: 12.38%

O=C1NCc2nc3ccccc3c(=O)n2-c2ccccc21 [BIA-S1678]
NFF_Activity [1, 3]: I (otherwise these were reported as inactive (I))
T.vaginalis_%inb_Rep1 [2, 4]: 10.85%
T.vaginalis_%inb_Rep2 [2, 5]: 12.61%

COC1=CC(C)=CC(C)C(O)C(C)CC(C)=CC=CC(OC)C(C(C)C(O)C(C)C(=O)C=CC(C)C(O)C(C)C)OC1=O (stereo not drawn) [BIA-B1162]
NFF_Activity [1, 6]: I (otherwise these were reported as inactive (I))
T.vaginalis_%inb_Rep1 [2, 7]: 15.67%
T.vaginalis_%inb_Rep2 [2, 8]: 18.37%

O=C1CCC[C@@H]2[C@H]3C[C@@H](CN12)[C@@H]1CCCCN1C3 [BIA-L1951]
NFF_Activity ([1]; NFF cells, screen at 5 µg/mL): I (otherwise these were reported as inactive (I))
T.vaginalis_%inb_Rep1 [2, 12]: 8.91%
T.vaginalis_%inb_Rep2 [2, 13]: 11.70%

Cc1cc(O)c2c(c1)C(=O)c1c(c(O)cc(O)c1-c1c(O)cc(O)c3c1C(=O)c1cc(C)cc(O)c1C3=O)C2=O [BIA-S1662]
NFF_Activity [1, 3]: I (otherwise these were reported as inactive (I))
T.vaginalis_%inb_Rep1 [2, 4]: 9.89%
T.vaginalis_%inb_Rep2 [2, 5]: 5.90%

CC[C@H]1/C=C/C=C/C[C@@H](C)[C@H](O)[C@@](C)(O)C(=O)[C@@H](C)[C@H](O)[C@@H](C)C(=O)[C@@H](C)[C@H](O)[C@@H](C)/C=C/C(=O)O[C@H]2C[C@@]3(CC[C@H](C)[C@H](C[C@@H](C)O)O3)O[C@@H](CC1)[C@H]2C [Oligomycin D]
NFF_Activity [1]: I (key: active (A) compounds having >25% inhibitory activity; otherwise these were reported as inactive (I))
T.vaginalis_%inb_Rep1 [2, 10]: 14.35%
T.vaginalis_%inb_Rep2 [2, 11]: 12.89%

CC(C)[C@@H]1OC(=O)[C@@H](Cc2ccccc2)N(C)C(=O)[C@H](C(C)C)OC(=O)[C@@H](Cc2ccccc2)N(C)C(=O)[C@H](C(C)C)OC(=O)[C@@H](Cc2ccccc2)N(C)C1=O [BIA-B1238]
NFF_Activity [1, 6]: I (otherwise these were reported as inactive (I))
T.vaginalis_%inb_Rep1 [2, 7]: 16.21%
T.vaginalis_%inb_Rep2 [2, 8]: 4.70%

CC(=O)NCCc1cnc[nH]1 [BIA-A1737]
NFF_Activity [1, 6]: I (otherwise these were reported as inactive (I))
T.vaginalis_%inb_Rep1 [2, 7]: 14.86%
T.vaginalis_%inb_Rep2 [2, 8]: 38.90%

CCC(C)C(=O)OC1CCC=C2C=CC(C)C(CCC3CC(O)CC(=O)O3)C21 (stereo not drawn) [BIA-M1209]
NFF_Activity ([1]; NFF cells, screen at 5 µg/mL): I (otherwise these were reported as inactive (I))
T.vaginalis_%inb_Rep1 [2, 12]: 12.32%
T.vaginalis_%inb_Rep2 [2, 13]: 10.01%

O=[N+]([O-])c1ncc[nH]1 [BIA-A1690]
NFF_Activity [1, 6]: I (otherwise these were reported as inactive (I))
T.vaginalis_%inb_Rep1 [2, 7]: 15.19%
T.vaginalis_%inb_Rep2 [2, 8]: 9.83%

C=C1C(=O)OC2C(=O)OC(CCCCCCCC)C12 (stereo not drawn) [BIA-A1409]
NFF_Activity [1, 6]: A (active (A) compounds having >25% inhibitory activity)
T.vaginalis_%inb_Rep1 [2, 7]: 15.19%
T.vaginalis_%inb_Rep2 [2, 8]: 12.94%

COC1=C(N)C(=O)c2nc(-c3nc(C(=O)O)c(C)c(-c4cccc(OC)c4O)c3N)ccc2C1=O [BIA-S1088]
NFF_Activity [1, 6]: A (active (A) compounds having >25% inhibitory activity)
T.vaginalis_%inb_Rep1 [2, 7]: 77.76%
T.vaginalis_%inb_Rep2 [2, 8]: 92.91%

O=c1cc(O)c1=O [Moniliformin]
NFF_Activity [1, 9]: I (otherwise these were reported as inactive (I))
T.vaginalis_%inb_Rep1 [2, 10]: 8.57%
T.vaginalis_%inb_Rep2 [2, 11]: 12.25%

From paper PMC7897990, “TriTOX: A novel Trichomonas vaginalis assay platform for high-throughput screening of compound libraries” (International Journal for Parasitology: Drugs and Drug …, 2021)
